Experimental data reported in PubChem BioAssay (NCI).
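All cell lines were grown in 96-well plates and treated with compound for 48 hours. Here, GI50 denotes the concentration required for 50% inhibition of growth. At the TGI there is no net growth.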

Experiments:
Assay in all cases: growth of human tumour cells (NCI), 48 h
[1] = system: 786-0 renal
[2] = system: A498 renal
[3] = system: A549 NSCLC
[4] = system: ACHN renal
[5] = system: BT-549 breast
[6] = system: CCRF-CEM leukemia
[7] = system: COLO 205 colon
[8] = system: DU-145 prostate
[9] = system: EKVX NSCLC
[10] = system: HCC-2998 colon
[11] = system: HCT-116 colon
[12] = system: HCT-15 colon
[13] = system: HL-60(TB) leukemia
[14] = system: HOP-92 NSCLC
[15] = system: HS 578T breast
[16] = system: HT29 colon
[17] = system: IGROV1 ovarian
[18] = system: K-562 leukemia
[19] = system: KM12 colon
[20] = system: LOX IMVI melanoma
[21] = system: M14 melanoma
[22] = system: MALME-3M melanoma
[23] = system: MCF7 breast
[24] = system: MDA-MB-231 breast
[25] = system: MDA-MB-435
[26] = system: MOLT-4 leukemia
[27] = system: NCI-H226 lung
[28] = system: NCI-H23 lung
[29] = system: NCI-H460 lung
[30] = system: NCI-H522 lung
[31] = system: NCI/ADR-RES ovarian
[32] = system: OVCAR-3 ovarian
[33] = system: OVCAR-4 ovarian
[34] = system: OVCAR-5 ovarian
[35] = system: OVCAR-8 ovarian
[36] = system: PC-3 prostate
[37] = system: RPMI-8226 leukemia
[38] = system: RXF 393 renal
[39] = system: SF-268 CNS
[40] = system: SF-295 CNS
[41] = system: SF-539 CNS
[42] = system: SK-MEL-2 melanoma
[43] = system: SK-MEL-28 melanoma
[44] = system: SK-MEL-5 melanoma
[45] = system: SK-OV-3 ovarian
[46] = system: SN12C renal
[47] = system: SNB-19 CNS
[48] = system: SNB-75 CNS
[49] = system: SR leukemia
[50] = system: SW-620 colon
[51] = system: T-47D breast
[52] = system: TK-10 renal
[53] = system: U251 CNS
[54] = system: UACC-257 melanoma
[55] = system: UACC-62 melanoma
[56] = system: UO-31 renal
[57] = system: CAKI-1 renal
[58] = system: HOP-62 NSCLC

SMILES: Cc1nccc2c3ccc(OCc4cn(-c5ccc(Cl)cc5)nn4)cc3n(CCCc3ccccc3)c12
- GI50 [1]: 649 nM
- TGI [1]: 1.39 µM
- GI50 [2]: > 33.3 µM
- TGI [2]: > 33.3 µM
- GI50 [3]: 2300 nM
- TGI [3]: > 33.3 µM
- GI50 [4]: 1570 nM
- TGI [4]: 8.5 µM
- GI50 [5]: 7.35 µM
- TGI [5]: 19.6 µM
- GI50 [6]: 1750 nM
- TGI [6]: > 33.3 µM
- GI50 [7]: 4.22 µM
- TGI [7]: > 33.3 µM
- GI50 [8]: 4.33 µM
- TGI [8]: > 33.3 µM
- GI50 [9]: 12.3 µM
- TGI [9]: > 33.3 µM
- GI50 [10]: 6.13 µM
- TGI [10]: > 33.3 µM
- GI50 [11]: 2140 nM
- TGI [11]: > 33.3 µM
- GI50 [12]: 2570 nM
- TGI [12]: > 33.3 µM
- GI50 [13]: 1880 nM
- TGI [13]: 8.37 µM
- GI50 [14]: 4.98 µM
- TGI [14]: 21.3 µM
- GI50 [15]: 0.844 µM
- TGI [15]: 2.48 µM
- GI50 [16]: 3.07 µM
- TGI [16]: > 33.3 µM
- GI50 [17]: 6.93 µM
- TGI [17]: > 33.3 µM
- GI50 [18]: 2960 nM
- TGI [18]: > 33.3 µM
- GI50 [19]: 6.21 µM
- TGI [19]: > 33.3 µM
- GI50 [20]: 1080 nM
- TGI [20]: 4.88 µM
- GI50 [21]: 0.616 µM
- TGI [21]: 1.26 µM
- GI50 [22]: 745 nM
- TGI [22]: 2790 nM
- GI50 [23]: 1490 nM
- TGI [23]: > 33.3 µM
- GI50 [24]: 6.83 µM
- TGI [24]: > 33.3 µM
- GI50 [25]: 2000 nM
- TGI [25]: > 33.3 µM
- GI50 [26]: 6.97 µM
- TGI [26]: > 33.3 µM
- GI50 [27]: 1720 nM
- TGI [27]: 9.12 µM
- GI50 [28]: 19.7 µM
- TGI [28]: > 33.3 µM
- GI50 [29]: 2740 nM
- TGI [29]: 17.9 µM
- GI50 [30]: > 33.3 µM
- TGI [30]: > 33.3 µM
- GI50 [31]: 644 nM
- TGI [31]: 1.72 µM
- GI50 [32]: 6.68 µM
- TGI [32]: 17.7 µM
- GI50 [33]: 4.34 µM
- TGI [33]: 10.4 µM
- GI50 [34]: 7.34 µM
- TGI [34]: > 33.3 µM
- GI50 [35]: 1210 nM
- TGI [35]: 4.22 µM
- GI50 [36]: 2420 nM
- TGI [36]: 16.6 µM
- GI50 [37]: 2450 nM
- TGI [37]: > 33.3 µM
- GI50 [38]: 4.45 µM
- TGI [38]: 11.6 µM
- GI50 [39]: 4.66 µM
- TGI [39]: 17.5 µM
- GI50 [40]: 4.81 µM
- TGI [40]: 12.7 µM
- GI50 [41]: 4.24 µM
- TGI [41]: 10.6 µM
- GI50 [42]: > 33.3 µM
- TGI [42]: > 33.3 µM
- GI50 [43]: 1300 nM
- TGI [43]: 5.71 µM
- GI50 [44]: 25.8 µM
- TGI [44]: > 33.3 µM
- GI50 [45]: > 33.3 µM
- TGI [45]: > 33.3 µM
- GI50 [46]: 8.81 µM
- TGI [46]: 31.2 µM
- GI50 [47]: > 33.3 µM
- TGI [47]: > 33.3 µM
- GI50 [48]: 565 nM
- TGI [48]: 1.57 µM
- GI50 [49]: 789 nM
- TGI [49]: 2.25 µM
- GI50 [50]: 2200 nM
- TGI [50]: > 33.3 µM
- GI50 [51]: 20.6 µM
- TGI [51]: > 33.3 µM
- GI50 [52]: 2000 nM
- TGI [52]: > 33.3 µM
- GI50 [53]: 8.82 µM
- TGI [53]: > 33.3 µM
- GI50 [54]: 4.58 µM
- TGI [54]: 13.4 µM
- GI50 [55]: 1890 nM
- TGI [55]: 7.43 µM
- GI50 [56]: 545 nM
- TGI [56]: 1.37 µM

SMILES: C=C(C)C1CC/C(C)=C/CC[C@]2(C)O[C@H]2CC/C(COC(C)=O)=C\[C@@H]1O (stereo partly specified)
- TGI [1]: > 50 µM
- TGI [2]: > 50 µM
- TGI [3]: > 50 µM
- TGI [4]: > 50 µM
- TGI [5]: > 50 µM
- TGI [57]: > 50 µM
- TGI [6]: > 50 µM
- TGI [7]: > 50 µM
- TGI [8]: > 50 µM
- TGI [9]: > 50 µM
- TGI [10]: > 50 µM
- TGI [11]: > 50 µM
- TGI [12]: > 50 µM
- TGI [13]: > 50 µM
- TGI [58]: > 50 µM
- TGI [14]: > 50 µM
- GI50 [15]: 8.27 µM
- TGI [15]: > 50 µM
- TGI [16]: > 50 µM
- TGI [17]: > 50 µM
- TGI [18]: > 50 µM
- TGI [19]: > 50 µM
- GI50 [21]: 8.28 µM
- TGI [21]: > 50 µM
- TGI [23]: > 50 µM
- TGI [24]: > 50 µM
- TGI [25]: > 50 µM
- TGI [26]: > 50 µM
- TGI [27]: > 50 µM
- TGI [28]: > 50 µM
- TGI [29]: > 50 µM
- TGI [30]: > 50 µM
- TGI [31]: > 50 µM
- TGI [32]: > 50 µM
- TGI [33]: > 50 µM
- TGI [34]: > 50 µM
- TGI [35]: > 50 µM
- TGI [36]: > 50 µM
- TGI [37]: > 50 µM
- TGI [38]: > 50 µM
- TGI [39]: > 50 µM
- TGI [40]: > 50 µM
- TGI [41]: > 50 µM
- TGI [42]: > 50 µM
- TGI [43]: > 50 µM
- TGI [44]: > 50 µM
- TGI [45]: > 50 µM
- TGI [46]: > 50 µM
- TGI [47]: > 50 µM
- GI50 [48]: 625 nM
- TGI [48]: 15.2 µM
- TGI [49]: > 50 µM
- TGI [50]: > 50 µM
- TGI [51]: > 50 µM
- TGI [52]: > 50 µM
- TGI [53]: > 50 µM
- TGI [54]: > 50 µM
- TGI [55]: > 50 µM
- TGI [56]: > 50 µM

SMILES: O=C(O)Cc1ccc(Oc2nc3ccccc3nc2C(=O)O)cc1
- TGI [1]: > 100 µM
- TGI [2]: > 100 µM
- TGI [3]: > 100 µM
- TGI [4]: > 100 µM
- TGI [5]: > 100 µM
- TGI [57]: > 100 µM
- TGI [6]: > 100 µM
- TGI [7]: > 100 µM
- TGI [8]: > 100 µM
- TGI [9]: > 100 µM
- TGI [10]: > 100 µM
- TGI [11]: > 100 µM
- TGI [12]: > 100 µM
- TGI [13]: > 100 µM
- TGI [58]: > 100 µM
- TGI [14]: > 100 µM
- TGI [15]: > 100 µM
- TGI [16]: > 100 µM
- TGI [17]: > 100 µM
- TGI [18]: > 100 µM
- TGI [19]: > 100 µM
- TGI [20]: > 100 µM
- TGI [21]: > 100 µM
- TGI [23]: > 100 µM
- TGI [24]: > 100 µM
- TGI [25]: > 100 µM
- TGI [27]: > 100 µM
- TGI [28]: > 100 µM
- TGI [29]: > 100 µM
- TGI [30]: > 100 µM
- TGI [31]: > 100 µM
- TGI [32]: > 100 µM
- TGI [33]: > 100 µM
- TGI [34]: > 100 µM
- TGI [35]: > 100 µM
- TGI [36]: > 100 µM
- TGI [37]: > 100 µM
- TGI [39]: > 100 µM
- TGI [40]: > 100 µM
- TGI [41]: > 100 µM
- TGI [42]: > 100 µM
- TGI [43]: > 100 µM
- TGI [44]: > 100 µM
- TGI [45]: > 100 µM
- TGI [46]: > 100 µM
- TGI [47]: > 100 µM
- TGI [48]: > 100 µM
- TGI [49]: > 100 µM
- TGI [50]: > 100 µM
- TGI [51]: > 100 µM
- TGI [52]: > 100 µM
- TGI [53]: > 100 µM
- TGI [54]: > 100 µM
- TGI [55]: > 100 µM
- TGI [56]: > 100 µM
